Assay results from PMC7910569 (Scientific Data, 2021).
Like-named read-outs stand apart in the source and are kept apart here.

How the values were obtained:
SARS-CoV-2 [1] = format: cell-based; settings: 10 µM
Experimental: For the primary screen, the final compound concentration was 10 µM (in 0.1% DMSO) and each compound was tested in singlicate. Concentration-response profiling of primary hits was performed in triplicate with eight concentrations ranging from 20 µM to 20 nM (half-log dilution factor, 0.1% DMSO final). For initial dose response studies, compounds were tested on three different plates to minimise the influence of plate effects. Later dose response studies at lower concentrations were also done on the same plate. Following the addition of compounds, cells were immediately infected with SARS-CoV-2 at a multiplicity of infection (MOI) of 0.01. Positive controls were prepared with the virus but no compounds, and negative controls were prepared without the virus. After 48 h, the medium was removed and cells were fixed in 3% paraformaldehyde in phosphate-buffered saline (PBS). The plates were sealed and disinfected to inactivate the virus[13] then screened by high-content imaging using the Operetta CLS platform (PerkinElmer). The image data were processed as described below and deposited on the Image Data Resource[14].
Images were acquired using a 10× objective with nine imaged fields per well in label-free mode by digital phase contrast (DPC). […] This method improves the signal-to-noise ratio and allows for image segmentation and single-cell analysis. The images were analysed using PerkinElmer Columbus v2.9.0. The analysis sequence started with cell detection (method c, common threshold 0.05, area >100 µm^2, splitting coefficient 6.5, individual threshold 0.05, contrast >0.05) and was followed by calculating morphology, intensity and position properties as well as cell confluence (Fig. 2). The data were deposited on the Image Data Resource[14]. Although we used cell confluence as a read out parameter additional parameters were calculated and deposited as well. These parameters can be used for further analysis to include parameters related to cellular stress or cytoskeletal impairment, both critical for viral replication. Well-level data were analysed in ActivityBase (IDBS) and R v3.6.1, using cell confluence as final read out parameter. […] Outliers were eliminated according to the three-sigma method. Plate-level statistical performance was assessed using the Z’factor calculation with values between 0.35 and 1.0 representing an acceptable assay. Data for the primary screen were deposited on ChEMBL[17].Concentration-response curves were fitted in GraphPad Prism v8.0.0 (GraphPad Software) using a four-parameter […] (least squares fit). Data for the dose-response screen were deposited on ChEMBL[18].
Cytopathicity assays were conducted in 96 well Cellstar plates (Greiner bio-one) using 4 wells with cells without virus (negative control) and 4 wells with cells and with virus (positive control). A three-sigma invalidation was performed on the raw data of the controls on each plate, resulting in maximal one invalidated well per plate during primary screening. During hit confirmation and dose-response studies no wells were eliminated as all wells were within three-sigma. After invalidation the plate specific z’factor was calculated and the plate was removed if quality criteria (z’factor > 0.35) were not met. Plates passing quality control were analysed and normalized as specified above. Hits were identified by having at least 75% efficiency in blocking viral cytopathicity at 10 µM.

SARS-CoV-2 [2] = settings: for inhibition of cytopathicity in the concentration-response screen: Caco-2, compound concentrations of up to 20 µM; for anti-cytopathic activity against SARS-CoV-2 (in words): Caco-2, hits / concentration-response screen
SARS-CoV [3] = settings: read-out: Reports SARS-CoV (Vero-E6) IC50, cited from earlier work
MERS-CoV [4] = settings: cited from earlier work
in vitro = settings: human, Caco-2
SARS-CoV-2 [5] = test: microbe, parasite or virus in culture; settings: Severe acute respiratory syndrome coronavirus 2, Caco-2, 48 h, read-out: Results SARS-CoV-2 (Caco-2) IC50
SARS-CoV-2 [6] = settings: Vero-E6, read-out: Reports SARS-CoV-2 (Vero-E6) IC50, cited from earlier work
SARS-CoV [7] = settings: Calu-3; read-out: Reports SARS-CoV (Vero-E6 or Calu-3) IC50; cited from earlier work
MERS-CoV [8] = settings: Calu-3; read-out: Reports MERS (Vero-6, Calu-3 or BHK21) IC50; cited from earlier work
MERS-CoV [9] = settings: BHK-21; read-out: Reports MERS (Vero-6, Calu-3 or BHK21) IC50; cited from earlier work
[10] = singlicate, Caco-2, 48 h, hit = at least 75% inhibition of cytopathicity
[11] = Vero-E6, ref 53, read-out: Reports MERS (Vero-E6) IC50

## CCCCN(CCCC)CC(O)c1cc(Cl)cc2c1-c1ccc(Cl)cc1/C2=C/c1ccc(Cl)cc1 (stereo not drawn) [lumefantrine]
SARS-CoV-2 [1]; [10]
  activity in the primary screen (in words): inactive

## COc1ccc2nc3cc(Cl)ccc3c(Nc3cc(CN4CCCC4)c(O)c(CN4CCCC4)c3)c2n1 [pyronaridine]
SARS-CoV-2 [1]; [10]
  activity in the primary screen (in words): inactive
SARS-CoV-2 [2]
  inhibition of cytopathicity in the concentration-response screen: < 50%

## C[C@@H]1C[C@@H]([C@H](O)CC2CC(=O)NC(=O)C2)C(=O)[C@@H](C)C1 [cycloheximide]
SARS-CoV [3]
  IC50: 0.043 µM
MERS-CoV [4]; read-out: Reports MERS (Vero-E6) IC50
  IC50: 0.16 µM
In vitro
  CC50 at 48 h: > 20 µM
SARS-CoV-2 [5]
  IC50: 0.58 ± 0.02 µM

## C[C@@H]1CN(Cc2ccc(F)cc2)[C@@H](C)CN1C(=O)c1cc2c(C(=O)C(=O)N(C)C)cn(C)c2cc1Cl [talmapimod]
In vitro
  CC50: > 20 µM
SARS-CoV-2 [5]
  IC50: 9.6 µM

## Cc1c(C(=O)Nc2ccc(N3C[C@@H](C)O[C@@H](C)C3)nc2)cccc1-c1ccc(OC(F)(F)F)cc1 [LDE225]
SARS-CoV-2 [2]
  anti-cytopathic activity against SARS-CoV-2 (in words): identified

## CCN(CC)CCCC(C)Nc1ccnc2cc(Cl)ccc12 (stereo not drawn) [chloroquine]
SARS-CoV-2 [2]
  anti-cytopathic activity against SARS-CoV-2 (in words): not observed
SARS-CoV-2 [6]; ref 22
  IC50: 1.13 µM
SARS-CoV-2 [6]; ref 55
  IC50: 46.8 µM
SARS-CoV [3]; Vero-E6, ref 56
  IC50: 4.4 µM
MERS-CoV [4]; [11]
  IC50: 6.28 µM
SARS-CoV-2 [5]
  IC50: > 20 µM

## CC(=NNC(=S)N1CC2CCC(CC2)C1)c1ccccn1 [NSC319276]
SARS-CoV-2 [2]
  anti-cytopathic activity against SARS-CoV-2 (in words): moderately potent

## COC(=O)C[C@](O)(CCCC(C)(C)O)C(=O)O[C@@H]1C(OC)=C[C@]23CCCN2CCc2cc4c(cc2[C@H]13)OCO4 [homo-harringtonine]
SARS-CoV-2 [2]
  anti-cytopathic activity against SARS-CoV-2 (in words): identified

## O[C@@H](COc1cccc2ncccc12)CN1CCN([C@@H]2c3ccccc3[C@@H]3[C@H](c4ccccc42)C3(F)F)CC1 [LY335979, zosuquidar]
SARS-CoV-2 [2]
  anti-cytopathic activity against SARS-CoV-2 (in words): identified

## CC(C)CN(C[C@@H](O)[C@H](Cc1ccccc1)NC(=O)O[C@H]1CO[C@H]2OCC[C@H]21)S(=O)(=O)c1ccc(N)cc1 [darunavir]
SARS-CoV-2 [1]; [10]
  activity in the primary screen (in words): inactive

## CC[C@H]1CN2CCc3cc(OC)c(OC)cc3[C@@H]2C[C@@H]1C[C@H]1NCCc2cc(OC)c(OC)cc21 [emetine]
SARS-CoV-2 [2]; human
  CI (cytotoxicity index): 2
SARS-CoV [3]; Vero-E6, ref 53
  IC50: 0.051 µM
MERS-CoV [4]; Vero-E6, ref 54, read-out: Reports MERS (Vero-E6) IC50
  IC50: 0.08 µM
In vitro
  CC50: 1.13 ± 0.5 µM
SARS-CoV-2 [5]
  IC50: 0.52 ± 0.09 µM

## Cc1cccc2c1CC[C@H](CN1CCC(c3c(Cl)cccc3Cl)CC1)C[C@@H]2O [SB-612111]
SARS-CoV-2 [5]
  IC50: 0.77 µM

## COc1cc(C)c2c(Oc3cccc(C(F)(F)F)c3)c(OC)cc(NC(C)CCCN)c2n1 (stereo not drawn) [tafenoquine]
SARS-CoV-2 [1]; [10]
  activity in the primary screen (in words): inactive
SARS-CoV-2 [2]
  inhibition of cytopathicity in the concentration-response screen: < 50%

## C[C@H](CS)C(=O)N1CCC[C@H]1C(=O)O [captopril]
SARS-CoV-2 [1]; [10]
  activity in the primary screen (in words): did not identify

## CNS(=O)(=O)Nc1nccc(Cc2c(C)c3ccc(Oc4ncccn4)cc3oc2=O)c1F [RO5126766]
In vitro
  CC50: > 20 µM
SARS-CoV-2 [5]
  IC50: 18.2 µM

## CN(C)C(=O)COC(=O)Cc1ccc(OC(=O)c2ccc(NC(=N)N)cc2)cc1 [camostat]
SARS-CoV-2 [6]; ref 23
  IC50: > 50 µM
SARS-CoV-2 [6]; ref 24
  IC50: 1 µM
SARS-CoV [7]
  IC50: ~1 µM
MERS-CoV [8]
  IC50: 1 µM
SARS-CoV-2 [5]
  IC50: < 1 µM

## N=C(N)c1ccc2cc(OC(=O)c3ccc(N=C(N)N)cc3)ccc2c1 [nafamostat]
SARS-CoV-2 [2]; comparison with refs 27, 28
  potency against SARS-CoV-2 in Caco-2 cell assay relative to previous studies using Vero-E6 cells: > 500 fold
SARS-CoV-2 [6]; ref 27, 28
  IC50: 22.5 µM
MERS-CoV [8]
  IC50: 0.1 µM

## C=C(c1ccccc1OCc1cccc(Cl)c1)n1ccnc1 [cloconazole]
SARS-CoV-2 [2]; read-out: Results SARS-CoV-2 (Caco-2) IC50
  IC50: ≥ 20 µM

## Nc1nc2c(ncn2[C@@H]2O[C@H](CO)[C@@H](O)[C@H]2O)c(=S)[nH]1 [thioguanosine]
SARS-CoV-2 [2]; printed as CI = IC50/CC50, Caco-2 toxicity versus SARS-CoV-2 anti-cytopathic effect
  CI (cytotoxicity index): < 3
SARS-CoV-2 [5]
  IC50: 0.78 µM

## CC(C)c1nc(CN(C)C(=O)N[C@H](C(=O)N[C@@H](Cc2ccccc2)C[C@H](O)[C@H](Cc2ccccc2)NC(=O)OCc2cncs2)C(C)C)cs1 [ritonavir]
SARS-CoV-2 [1]; 48 h
  activity in the primary screen (in words): inactive

## OC(c1cc(C(F)(F)F)nc2c(C(F)(F)F)cccc12)C1CCCCN1 (stereo not drawn) [mefloquine]
SARS-CoV-2 [1]; [10]
  activity in the primary screen (in words): identified in the primary screen
SARS-CoV-2 [6]; ref 23
  IC50: 4.33 µM
SARS-CoV-2 [6]; ref 55
  IC50: 8.06 µM
SARS-CoV [3]; Vero-E6, ref 53
  IC50: 7.41 µM
MERS-CoV [4]; [11]
  IC50: 15.5 µM

## CCC(CC)COC(=O)[C@H](C)N[P@](=O)(OC[C@H]1O[C@@](C#N)(c2ccc3c(N)ncnn23)[C@H](O)[C@@H]1O)Oc1ccccc1 [remdesivir]
SARS-CoV [3]; Vero-E6, ref 22
  IC50: 0.069 µM
In vitro
  CC50: > 20 µM
SARS-CoV-2 [5]
  IC50: 0.76 ± 0.18 µM

## COc1cc(NC(C)CCCN)c2ncccc2c1 (stereo not drawn) [primaquine]
SARS-CoV-2 [1]; [10]
  activity in the primary screen (in words): inactive

## N#CC(c1ccnc(OCc2ccc(CN3CCOCC3)cc2)n1)c1nc2ccccc2s1 (stereo not drawn) [bentamapimod]
In vitro
  CC50 at 48 h: > 20 µM
SARS-CoV-2 [5]
  IC50: 5.9 µM

## CCN(CCO)CCCC(C)Nc1ccnc2cc(Cl)ccc12 (stereo not drawn) [hydroxychloroquine]
SARS-CoV-2 [1]; [10]
  activity in the primary screen (in words): inactive

## COc1ccc(Cc2nccc3cc(OC)c(OC)cc23)cc1OC [papaverine]
MERS-CoV [9]
  IC50: 9.45 µM

## CCN(CC)Cc1cc(Nc2ccnc3cc(Cl)ccc23)ccc1O [amodiaquine]
SARS-CoV-2 [1]; [10]
  activity in the primary screen (in words): inactive

## CCN(CC)CCCC(C)Nc1ccnc2cc(Cl)ccc12 (stereo not drawn) [chloroquine diphosphate]
SARS-CoV-2 [1]; 48 h
  activity in the primary screen (in words): inactive

## Cc1cccc(C)c1OCC(=O)N[C@@H](Cc1ccccc1)[C@@H](O)C[C@H](Cc1ccccc1)NC(=O)[C@H](C(C)C)N1CCCNC1=O [lopinavir]
SARS-CoV-2 [2]
  anti-cytopathic activity against SARS-CoV-2 (in words): active at the highest concentration
SARS-CoV-2 [6]; ref 23
  IC50: 9.12 µM
MERS-CoV [4]; Vero-E6, ref 57, 58
  Reports MERS (Vero-6, Calu-3 or BHK21) IC50: not active
MERS-CoV [4]; Vero-E6, ref 57, 58, read-out: Reports MERS (Vero-6, Calu-3 or BHK21) IC50
  IC50: 8 µM

## NS(=O)(=O)OC[C@@H]1C[C@@H](n2ccc3c(N[C@H]4CCc5ccccc54)ncnc32)C[C@@H]1O [pevonedistat]
SARS-CoV-2 [5]
  IC50: < 1 µM
